Test system: orthotopic Calu-6 lung tumors
Test: orthotopic Calu-6 lung tumor with thoracic radiation, bioluminescent imaging
Assay type: in vivo
Conditions: single dose 30 mg/kg + 10 Gy thoracic radiation
Description: Orthotopic lung xenografts were generated following a published protocol ([54]) with minor modifications. Briefly, CD-1 nude mice (Charles River Laboratories) were anesthetized with 2% isoflurane and placed in the right lateral decubitus position. Luciferase-expressing Calu-6 cells (1 × 10^6) in 50 μL of 50% (vol/vol) Matrigel were injected into the left lateral thorax at the lateral dorsal axillary line, 1.5 cm above the lower rib line. The needle was advanced 5 mm into the thorax. After injection, the mouse was turned to the left lateral decubitus position for 5 minutes. […]
NSCLC subcutaneous xenografts were generated as previously described ( 53). […] Mouse weights and tumor volumes (1/2 x length x width x depth) were measured three times a week.
Targeted radiotherapy in subcutaneous and orthotopic NSCLC xenograft models When subcutaneous xenografts reached 100 mm3, mice were randomized into four groups (n = 7 - 11/group): (i) N-Methyl-2-pyrrolidone (NMP): 30% Encapsin : PEG400 (1:6:3 v/v/v) vehicle p.o. 30 minutes prior to mock radiation. […] The remaining mice were monitored for tumor growth until the sizes of tumo rs reached 400 mm 3 or up to 38 days after initiation of […]
Tumor growth in the remaining mice was monitored by bioluminescent imaging on days 0, 4, 8 and 15 post-treatment. […] Data were analyzed using LivingImage software (PerkinElmer). […]

In the case of `CN(C(=O)CN1CCOCC1)c1ccc2sc3c(-c4cccc5c(=O)cc(N6CC7CCC(C6)O7)oc45)cccc3c2c1` [NU5455], the tolerability is reported as “well tolerated” and the “antitumor effect of radiation (time to 4-fold increase in bioluminescent signal)” value (CD-1 nude mice) is reported as “enhanced the antitumor effect of the radiation”.

Reference: PMC6934184, “Selective DNA-PKcs inhibition extends the therapeutic index of localized radiotherapy and chemotherapy” (The Journal of Clinical Investigation, 2019)
